ChEMBL document CHEMBL1147144, “Novel styrylpyridines as probes for SPECT imaging of amyloid plaques” (J Med Chem, 2007)

Key:
[1] = test system: Muscle tissue; assay: Biodistribution in ICR mouse muscle at 5 to 10 uCi, iv after 2 mins; assay type: ADME, organism-based; settings: in vivo
[2] = test system: Blood; assay: Biodistribution in ICR mouse blood at 5 to 10 uCi, iv after 1 hr; assay type: ADME, organism-based; settings: in vivo
[3] = test system: Brain; assay: Ratio of drug distribution in brain after 2 mins to 30 mins in ICR mouse at 5 to 10 uCi, iv; assay type: ADME, organism-based; settings: in vivo
[4] = test system: Muscle tissue; assay: Biodistribution in ICR mouse muscle at 5 to 10 uCi, iv after 1 hr; assay type: ADME, organism-based; settings: in vivo
[5] = test system: Heart; assay: Biodistribution in ICR mouse heart at 5 to 10 uCi, iv after 2 hrs; assay type: ADME, organism-based; settings: in vivo
[6] = test system: Heart; assay: Biodistribution in ICR mouse heart at 5 to 10 uCi, iv after 30 mins; assay type: ADME, organism-based; settings: in vivo, 0.5 h
[7] = test system: Thyroid gland; assay: Biodistribution in ICR mouse thyroid at 5 to 10 uCi, iv after 2 mins; assay type: ADME, organism-based; settings: in vivo
[8] = test system: Liver; assay: Biodistribution in ICR mouse liver at 5 to 10 uCi, iv after 1 hr; assay type: ADME, organism-based; settings: in vivo
[9] = test system: Zone of skin; assay: Biodistribution in ICR mouse skin at 5 to 10 uCi, iv after 2 mins; assay type: ADME, organism-based; settings: in vivo
[10] = test system: Spleen; assay: Biodistribution in ICR mouse spleen at 5 to 10 uCi, iv after 1 hr; assay type: ADME, organism-based; settings: in vivo
[11] = test system: Heart; assay: Biodistribution in ICR mouse heart at 5 to 10 uCi, iv after 2 mins; assay type: ADME, organism-based; settings: in vivo
[12] = test system: Thyroid gland; assay: Biodistribution in ICR mouse thyroid at 5 to 10 uCi, iv after 30 mins; assay type: ADME, organism-based; settings: in vivo, 0.5 h
[13] = test system: Brain; assay: Biodistribution in ICR mouse brain at 5 to 10 uCi, iv after 30 mins; assay type: ADME, organism-based; settings: in vivo, 0.5 h
[14] = test system: Brain; assay: Biodistribution in ICR mouse brain at 5 to 10 uCi, iv after 1 hr; assay type: ADME, organism-based; settings: in vivo
[15] = test system: Liver; assay: Biodistribution in ICR mouse liver at 5 to 10 uCi, iv after 2 hrs; assay type: ADME, organism-based; settings: in vivo
[16] = test system: Spleen; assay: Biodistribution in ICR mouse spleen at 5 to 10 uCi, iv after 2 mins; assay type: ADME, organism-based; settings: in vivo
[17] = test system: Heart; assay: Biodistribution in ICR mouse heart at 5 to 10 uCi, iv after 1 hr; assay type: ADME, organism-based; settings: in vivo
[18] = test system: Blood; assay: Biodistribution in ICR mouse blood at 5 to 10 uCi, iv after 2 mins; assay type: ADME, organism-based; settings: in vivo
[19] = test system: Kidney; assay: Biodistribution in ICR mouse kidney at 5 to 10 uCi, iv after 1 hr; assay type: ADME, organism-based; settings: in vivo
[20] = test system: Muscle tissue; assay: Biodistribution in ICR mouse muscle at 5 to 10 uCi, iv after 30 mins; assay type: ADME, organism-based; settings: in vivo, 0.5 h
[21] = test system: Blood; assay: Biodistribution in ICR mouse blood at 5 to 10 uCi, iv after 2 hrs; assay type: ADME, organism-based; settings: in vivo
[22] = test system: Kidney; assay: Biodistribution in ICR mouse kidney at 5 to 10 uCi, iv after 2 hrs; assay type: ADME, organism-based; settings: in vivo
[23] = test system: Muscle tissue; assay: Biodistribution in ICR mouse muscle at 5 to 10 uCi, iv after 2 hrs; assay type: ADME, organism-based; settings: in vivo
[24] = test system: Thyroid gland; assay: Biodistribution in ICR mouse thyroid at 5 to 10 uCi, iv after 2 hrs; assay type: ADME, organism-based; settings: in vivo
[25] = test system: Lung; assay: Biodistribution in ICR mouse lung at 5 to 10 uCi, iv after 30 mins; assay type: ADME, organism-based; settings: in vivo, 0.5 h
[26] = test system: Kidney; assay: Biodistribution in ICR mouse kidney at 5 to 10 uCi, iv after 2 mins; assay type: ADME, organism-based; settings: in vivo
[27] = test system: Zone of skin; assay: Biodistribution in ICR mouse skin at 5 to 10 uCi, iv after 30 mins; assay type: ADME, organism-based; settings: in vivo, 0.5 h
[28] = test system: Zone of skin; assay: Biodistribution in ICR mouse skin at 5 to 10 uCi, iv after 2 hrs; assay type: ADME, organism-based; settings: in vivo
[29] = test system: Blood; assay: Biodistribution in ICR mouse blood at 5 to 10 uCi, iv after 30 mins; assay type: ADME, organism-based; settings: in vivo, 0.5 h
[30] = Partition coefficient, log P at pH 7.4; assay type: physicochemical; settings: octanol/water
[31] = test system: Brain; assay: Biodistribution in ICR mouse brain at 5 to 10 uCi, iv after 2 hrs; assay type: ADME, organism-based; settings: in vivo
[32] = test system: Lung; assay: Biodistribution in ICR mouse lung at 5 to 10 uCi, iv after 2 mins; assay type: ADME, organism-based; settings: in vivo
[33] = test system: Lung; assay: Biodistribution in ICR mouse lung at 5 to 10 uCi, iv after 1 hr; assay type: ADME, organism-based; settings: in vivo
[34] = test system: Liver; assay: Biodistribution in ICR mouse liver at 5 to 10 uCi, iv after 30 mins; assay type: ADME, organism-based; settings: in vivo, 0.5 h
[35] = test system: Lung; assay: Biodistribution in ICR mouse lung at 5 to 10 uCi, iv after 2 hrs; assay type: ADME, organism-based; settings: in vivo
[36] = test system: Brain; assay: Biodistribution in ICR mouse brain at 5 to 10 uCi, iv after 2 mins; assay type: ADME, organism-based; settings: in vivo
[37] = test system: Spleen; assay: Biodistribution in ICR mouse spleen at 5 to 10 uCi, iv after 30 mins; assay type: ADME, organism-based; settings: in vivo, 0.5 h
[38] = test system: Zone of skin; assay: Biodistribution in ICR mouse skin at 5 to 10 uCi, iv after 1 hr; assay type: ADME, organism-based; settings: in vivo
[39] = test system: Thyroid gland; assay: Biodistribution in ICR mouse thyroid at 5 to 10 uCi, iv after 1 hr; assay type: ADME, organism-based; settings: in vivo
[40] = test system: Liver; assay: Biodistribution in ICR mouse liver at 5 to 10 uCi, iv after 2 mins; assay type: ADME, organism-based; settings: in vivo
[41] = test system: Spleen; assay: Biodistribution in ICR mouse spleen at 5 to 10 uCi, iv after 2 hrs; assay type: ADME, organism-based; settings: in vivo
[42] = test system: Kidney; assay: Biodistribution in ICR mouse kidney at 5 to 10 uCi, iv after 30 mins; assay type: ADME, organism-based; settings: in vivo, 0.5 h
[43] = biological target: Amyloid-beta precursor protein (Homo sapiens, UniProt P05067); assay: Displacement of […] from Abeta peptide plaques in Alzheimer's disease patient brain
Amyloid-beta precursor protein, sequence (P05067 whole entry): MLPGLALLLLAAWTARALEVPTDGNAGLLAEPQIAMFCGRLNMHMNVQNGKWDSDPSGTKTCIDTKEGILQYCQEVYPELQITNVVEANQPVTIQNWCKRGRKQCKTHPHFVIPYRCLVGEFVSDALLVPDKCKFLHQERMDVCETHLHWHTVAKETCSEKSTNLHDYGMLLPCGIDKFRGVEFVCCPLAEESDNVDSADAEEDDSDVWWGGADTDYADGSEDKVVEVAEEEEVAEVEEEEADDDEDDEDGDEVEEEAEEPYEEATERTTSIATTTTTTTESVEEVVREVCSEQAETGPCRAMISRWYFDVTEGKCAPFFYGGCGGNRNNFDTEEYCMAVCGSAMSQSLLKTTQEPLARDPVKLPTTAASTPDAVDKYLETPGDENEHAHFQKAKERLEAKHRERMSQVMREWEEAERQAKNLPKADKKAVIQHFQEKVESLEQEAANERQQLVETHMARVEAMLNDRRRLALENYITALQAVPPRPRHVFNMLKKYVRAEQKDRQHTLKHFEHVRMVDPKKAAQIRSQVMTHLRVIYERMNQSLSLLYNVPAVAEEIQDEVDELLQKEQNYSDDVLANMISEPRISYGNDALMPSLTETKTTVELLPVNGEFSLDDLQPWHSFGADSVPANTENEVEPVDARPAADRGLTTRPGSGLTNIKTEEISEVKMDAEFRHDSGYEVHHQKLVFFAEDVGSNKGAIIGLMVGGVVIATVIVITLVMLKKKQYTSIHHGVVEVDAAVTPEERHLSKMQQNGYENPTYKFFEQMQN

CN(C)c1ccc(/C=C/c2cnc(OCCO)c([125I])c2)cc1
Drug uptake [1]: 0.71 % ID/g | Drug uptake [2]: 2.18 % ID/g | Ratio [3]: 1.52 | Drug uptake [4]: 0.55 % ID/g | Drug uptake [5]: 0.62 % ID/g | Drug uptake [6]: 1.93 % ID/g | Drug uptake [7]: 4.15 % ID/g | Drug uptake [8]: 6.22 % ID/g | Drug uptake [9]: 0.46 % ID/g | Drug uptake [10]: 1.32 % ID/g | Drug uptake [11]: 10.2 % ID/g | Drug uptake [12]: 11.2 % ID/g | Drug uptake [13]: 3.56 % ID/g | Drug uptake [14]: 1.32 % ID/g | Drug uptake [15]: 4.87 % ID/g | Drug uptake [16]: 4.4 % ID/g | Drug uptake [17]: 1.12 % ID/g | Drug uptake [18]: 2.71 % ID/g | Drug uptake [19]: 2.49 % ID/g | Drug uptake [20]: 1.05 % ID/g | Drug uptake [21]: 1.01 % ID/g | Drug uptake [22]: 1.48 % ID/g | Drug uptake [23]: 0.22 % ID/g | Drug uptake [24]: 24.8 % ID/g | Drug uptake [25]: 3.02 % ID/g | Drug uptake [26]: 14.3 % ID/g | Drug uptake [27]: 1.18 % ID/g | Drug uptake [28]: 0.4 % ID/g | Drug uptake [29]: 2.24 % ID/g | logD [30]: 2.2 | Drug uptake [31]: 0.46 % ID/g | Drug uptake [32]: 9.41 % ID/g | Drug uptake [33]: 1.98 % ID/g | Drug uptake [34]: 12.4 % ID/g | Drug uptake [35]: 1 % ID/g | Drug uptake [36]: 5.43 % ID/g | Drug uptake [37]: 1.94 % ID/g | Drug uptake [38]: 1.16 % ID/g | Drug uptake [39]: 59.1 % ID/g | Drug uptake [40]: 19.1 % ID/g | Drug uptake [41]: 0.8 % ID/g | Drug uptake [42]: 4.19 % ID/g

CN(C)c1ccc(/C=C/c2cnc(OCCO)c(Br)c2)cc1
Ki [43]: 3.6 nM

CNc1ccc(/C=C/c2cnc(OCCO)c(I)c2)cc1
Ki [43]: 8.5 nM

OCCOc1ncc(/C=C/c2ccc(O)cc2)cc1[125I]
Drug uptake [1]: 1.01 % ID/g | Drug uptake [2]: 1.29 % ID/g | Drug uptake [4]: 0.21 % ID/g | Drug uptake [5]: 0.51 % ID/g | Drug uptake [6]: 1.35 % ID/g | Drug uptake [7]: 4.38 % ID/g | Drug uptake [8]: 2.38 % ID/g | Drug uptake [9]: 0.64 % ID/g | Drug uptake [10]: 0.5 % ID/g | Drug uptake [11]: 6.66 % ID/g | Drug uptake [12]: 3.99 % ID/g | Drug uptake [13]: 0.26 % ID/g | Drug uptake [14]: 0.09 % ID/g | Drug uptake [15]: 2.63 % ID/g | Drug uptake [16]: 4.2 % ID/g | Drug uptake [17]: 0.65 % ID/g | Drug uptake [18]: 10.1 % ID/g | Drug uptake [19]: 2.94 % ID/g | Drug uptake [20]: 0.59 % ID/g | Drug uptake [21]: 1.56 % ID/g | Drug uptake [22]: 2.5 % ID/g | Drug uptake [23]: 0.12 % ID/g | Drug uptake [24]: 16 % ID/g | Drug uptake [25]: 3.1 % ID/g | Drug uptake [26]: 20.4 % ID/g | Drug uptake [27]: 1.36 % ID/g | Drug uptake [28]: 0.37 % ID/g | Drug uptake [29]: 3.92 % ID/g | logD [30]: 2.2 | Drug uptake [31]: 0.06 % ID/g | Drug uptake [32]: 14.2 % ID/g | Drug uptake [33]: 1.34 % ID/g | Drug uptake [34]: 5.15 % ID/g | Drug uptake [35]: 1.02 % ID/g | Drug uptake [36]: 0.99 % ID/g | Drug uptake [37]: 1.28 % ID/g | Drug uptake [38]: 0.62 % ID/g | Drug uptake [39]: 13 % ID/g | Drug uptake [40]: 18.3 % ID/g | Drug uptake [41]: 0.5 % ID/g | Drug uptake [42]: 10 % ID/g
